These results are taken from PubChem BioAssay AID1996.

Values after ≈ are worked out from the molar mass of the structure shown.

The conditions of the data set: buffer; pH 7.4; 200.0 µM.
Take `O=C(NNC(=O)c1ccc2nc[nH]c2c1)c1ccccc1`: the solubility (kinetic) (in general, solubility judged after dilution from a stock solution rather than from solid) is above 42 µg/mL. To `CCOC(=O)c1c(C)[nH]c(C)c1C(=O)COC(=O)c1cccnc1OCC` belongs above 56.2 µg/mL; to `CC(C)c1ccc(N=C2N=C(N)c3ccccc32)cc1`, 15.4 µg/mL (≈ 58.5 µM). The figure for `CC(=O)Nc1ccc(N/C=C/C(=O)c2ccccc2)cc1` is 4.1 µg/mL (≈ 14.6 µM); for `O=[N+]([O-])c1ccc(CN2CCN(c3ccc(F)cc3)CC2)o1` it is 15 µg/mL (≈ 49.1 µM). To `Cc1ccc(CN2C(=O)CNC2=S)cc1` belongs above 33 µg/mL; to `Cc1[nH]c2ccccc2c1SCC(=O)N1CCC(C)CC1`, above 45.4 µg/mL; to `Cc1nc(-c2cccc(NC(=O)c3ccc(Br)o3)c2)cs1`, 17.2 µg/mL (≈ 47.4 µM). For `COc1cc(/C=C/C(=O)Nc2ccc(OC)c(S(=O)(=O)N3CCOCC3)c2)ccc1OCC#N`, the solubility (kinetic) was 7.1 µg/mL (≈ 14.6 µM). The molecule `O=C(Nc1nccs1)c1ccc(Cl)nc1` came in with a solubility (kinetic) above 36 µg/mL.

`CSc1c(CC(=O)Nc2ccccc2)n(C)c2ccccc12` registered a solubility (kinetic) of 0.4 µg/mL (≈ 1.29 µM). As to `CCOC(=O)Nc1ccc(OC)c([N+](=O)[O-])c1`, the solubility (kinetic) was above 36 µg/mL. The figure for `Cc1ccccc1OCC(=O)NC1CCCCCCC1` is 4.2 µg/mL (≈ 15.3 µM). Take `CC1CCCCC1NC(=O)COC(=O)CNC(=O)c1cccc(F)c1` (stereo not drawn): the solubility (kinetic) worked out at 51.2 µg/mL (≈ 146 µM). `Cc1ccc(Nc2nc(Cl)nc(NC3CCCCC3)n2)cc1` registered a kinetic solubility below 0.1 µg/mL. In turn, `CC(C)C(=O)Nc1ccc(N2CCOCC2)c(S(=O)(=O)Nc2ccccc2Cl)c1` registered a kinetic solubility of 2.8 µg/mL (≈ 6.39 µM). The figure for `COc1ccccc1Oc1ccc2c(c1)C(=O)N(CC(=O)O)C2=O` is above 49.1 µg/mL; for `N#CCC(=O)Nc1ccc(C(=O)OCC(=O)NC2CCCc3ccccc32)cc1` (stereo not drawn) it is 7.5 µg/mL (≈ 19.2 µM).

Molecule `CC1N=C(c2ccccc2)c2cc(Br)ccc2NC1=O` (stereo not drawn) registered a kinetic solubility above 49.4 µg/mL. `Cc1ccc(Oc2ncccc2N)c2c1CCC2` registered a solubility (kinetic) of 10.1 µg/mL (≈ 42 µM).

For the molecule `Cc1noc(NS(=O)(=O)c2ccc(NC(=O)c3ccc(F)cc3)cc2)c1C`, the kinetic solubility is above 58.4 µg/mL.

Turning to `CC12CC3CC(C)(C1)CC(C(=O)NCc1cccnc1)(C3)C2`, the solubility (kinetic) is above 44.8 µg/mL.

For `CCC[N+](CC#CCO)(CC#Cc1ccccc1)CCC.[Br-]`, the kinetic solubility was above 54.6 µg/mL.

`O=C(COC(=O)C1CCC1)NC(=O)c1ccccc1` yielded a solubility (kinetic) above 39.2 µg/mL.

In turn, `CSCCC(NC(=O)COc1ccccc1)C(=O)NCc1cccs1` (stereo not drawn) yielded a kinetic solubility above 56.8 µg/mL. The molecule `COc1cc(CNC(=O)c2cc3ccccc3oc2=O)cc(OC)c1OC` displayed a solubility (kinetic) of 4.6 µg/mL (≈ 12.5 µM).

In the case of `O=C(CS(=O)(=O)c1ccccc1)Nc1nc2ccccc2s1`, the solubility (kinetic) was above 49.9 µg/mL. The figure for `Cc1ccc(C(=O)Nc2cccc(NC(=O)c3cccs3)c2)c(C)c1` is 0.6 µg/mL (≈ 1.71 µM); for `O=c1ccc2c([nH]1)CCCCCCCCCC2` it is 5.2 µg/mL (≈ 22.3 µM).

In the case of `Cc1ccc(O)c(NC(=O)c2cc([N+](=O)[O-])ccc2Cl)c1`, the solubility (kinetic) was found to be 8.5 µg/mL (≈ 27.7 µM). The figure for `OCC1(CO)COC(/C=C/c2ccccc2)=N1` is above 35 µg/mL; for `COc1ccc2oc(C(=O)N3CCN(c4ncccn4)CC3)c(C)c2c1` it is 4.8 µg/mL (≈ 13.6 µM).

In turn, `O=C(NC1CCC(c2ccccc2)CC1)c1cccnc1` (stereo not drawn) showed a kinetic solubility of 4.3 µg/mL (≈ 15.3 µM). Turning to `CC(CCc1ccccc1)NC(=O)CNC(=O)c1cccs1` (stereo not drawn), the solubility (kinetic) was above 47.5 µg/mL. The figure for `Cc1cc(C(=O)Nc2cccc3ccccc23)c(C)o1` is 4 µg/mL (≈ 15.1 µM); for `Cc1c(CN2CCN(CC(C)(C)C)C(CCO)C2)[nH]c2ccccc12` (stereo not drawn) it is 45.1 µg/mL (≈ 131 µM); for `COc1ccc(C(=O)/C=C2\Sc3ccccc3N2C)cc1` it is 0.7 µg/mL (≈ 2.35 µM). The figure for `O=C(O)C1CCN(c2ccccc2[N+](=O)[O-])CC1` is above 37.5 µg/mL; for `COc1ccc(CC(=O)Nc2ccncc2Cl)cc1` it is above 41.5 µg/mL. The figure for `Cc1ccc(C)c(NC(=O)c2cc3ccccc3o2)c1` is 10.9 µg/mL (≈ 41.1 µM); for `COc1ccc(CCC(=O)N2CCN(c3cccc(C)c3C)CC2)cc1` it is 17.3 µg/mL (≈ 49.1 µM).

Regarding `CCc1ccc(C(=O)Nc2cc(S(=O)(=O)N3CCOCC3)ccc2N2CCOCC2)cc1`, the solubility (kinetic) worked out at 2.5 µg/mL (≈ 5.44 µM). The figure for `O=C(NC1CCCCC1)c1cc(F)cc2c1OCOC2` is 28.9 µg/mL (≈ 103 µM); for `CCOc1ccc(NC(=O)/C(C=Nc2ccccc2)=C(\C)O)cc1` it is 1 µg/mL (≈ 3.08 µM); for `Cc1ccc(N=Cc2cc3c(cc2[N+](=O)[O-])OCO3)cc1[N+](=O)[O-]` it is 20.5 µg/mL (≈ 62.3 µM).

Consider `Cc1ccc(Oc2ccc(NS(=O)(=O)c3cccc(C(=O)O)c3)cc2)cc1`, for which the solubility (kinetic) came out at 57.2 µg/mL (≈ 149 µM). To `COc1ccc(Nc2cc(Nc3ccc(OC)cc3)ncn2)cc1` belongs below 0.2 µg/mL; to `Cc1cccc(C)c1NC(=O)CNC(=O)c1ccncc1`, above 42.5 µg/mL. `O=C(CCC(=O)N1CCN(c2ccccn2)CC1)c1cccs1` registered a solubility (kinetic) above 49.4 µg/mL. The molecule `CCOc1ccc(NC(=O)C2CCCN(S(C)(=O)=O)C2)cc1` (stereo not drawn) showed a kinetic solubility of 4.1 µg/mL (≈ 12.6 µM). With `O=C1NC(C(F)(F)F)(C(F)(F)F)N=C2SC=CN12`, the kinetic solubility is 41.6 µg/mL (≈ 143 µM). The figure for `CCOc1ccc(NC(=O)CCS(=O)(=O)c2ccc(C)cc2)cc1` is above 52.1 µg/mL; for `COc1cc2c(cc1OC)C(c1ccc(O)cc1)NCC2` (stereo not drawn) it is above 42.8 µg/mL. `COc1cc([N+](=O)[O-])ccc1NC(=O)/C=C\C(=O)O` had a kinetic solubility above 39.9 µg/mL. To `O=C(O)c1cc([N+](=O)[O-])c(NCCC2=CCCCC2)c([N+](=O)[O-])c1` belongs above 50.3 µg/mL; to `COc1cc(OC)c(C(=O)NCc2ccco2)cc1OC`, above 43.7 µg/mL; to `O=[N+]([O-])c1ccc(N2CCNCC2)cc1N1CCCCC1`, above 43.6 µg/mL. `O=c1cc(-c2ccccc2O)nc(-c2ccccc2)[nH]1` came in with a kinetic solubility of 0.8 µg/mL (≈ 3.03 µM). To `CCCCOc1ccc(N=Cc2ccc[nH]2)cc1` belongs 34.9 µg/mL (≈ 144 µM); to `Fc1ccc(Nc2c3c(nc4ccccc24)CCC3)cc1`, 33.1 µg/mL (≈ 119 µM); to `CC(C)(C)NC(=O)NC(=O)CN1CCN(Cc2ccccc2)CC1`, 45.3 µg/mL (≈ 136 µM). To `COc1ccc(/C=C2\SC(=N)N(c3ccc(F)cc3)C2=O)cc1OC` belongs 3.8 µg/mL (≈ 10.6 µM); to `O=C(OCc1ccc(Cl)c(Cl)c1)c1cccnc1Cl`, below 0.7 µg/mL. The figure for `O=C(CSc1nccc(=O)[nH]1)NC1CCCCCCC1` is above 44.3 µg/mL. In turn, `COc1ccc(NC(=O)CCCC2CCCCC2)c(OC)c1` returned a solubility (kinetic) below 0.7 µg/mL. To `NC(=O)c1ccc(N=Cc2c(O)ccc3ccccc23)cc1` belongs 10.3 µg/mL (≈ 35.5 µM); to `O=C(COC(=O)c1cccnc1)Nc1cccc2ccccc12`, 42.1 µg/mL (≈ 137 µM); to `COCC(=O)Nc1ccc2c(c1)OCC(=O)N2Cc1ccc(C)cc1`, 20.9 µg/mL (≈ 61.4 µM). With `CC(=O)Nc1cccc(-c2csc(Nc3ncccn3)n2)c1`, the solubility (kinetic) was 3.5 µg/mL (≈ 11.2 µM). The figure for `Cl.Clc1cccc(OCCn2ccnc2)c1` is above 38.9 µg/mL; for `COC(=O)c1ccc(Cl)c(NC(=O)c2cccc([N+](=O)[O-])c2C)c1` it is 0.7 µg/mL (≈ 2.01 µM). With `O=[N+]([O-])c1cc(NCCO)c(N2CCCCCC2)c2nonc12`, the solubility (kinetic) was 42.3 µg/mL (≈ 132 µM). The figure for `CC(OC(=O)C1CC2CCCC(C1)C2=O)C(=O)Nc1cccc([N+](=O)[O-])c1` (stereo not drawn) is above 56.2 µg/mL. The figure for `O=C(COC(=O)/C=C/c1ccco1)Nc1ccccc1` is 13.5 µg/mL (≈ 49.8 µM); for `COc1cccc(C(=O)NC2CC3CCC(C2)N3Cc2ccccc2)c1` (stereo not drawn) it is 52.2 µg/mL (≈ 149 µM); for `S=c1[nH]c2ccccc2n1Cc1ccccc1` it is 4.8 µg/mL (≈ 20 µM). The figure for `COC(c1ccccc1)c1nnc(CCC(=O)NC2CCCCC2)o1` (stereo not drawn) is above 51.5 µg/mL; for `Cc1cc(C(=O)Nc2ccc(N3CCOCC3)c(Cl)c2)c(C)o1` it is 45.6 µg/mL (≈ 136 µM). `O=C(Nc1cccc(Cl)c1N1CCOCC1)c1ccco1`: the solubility (kinetic) was 5.7 µg/mL (≈ 18.6 µM). To `COc1ccc(CCNC(=O)c2ccc3nc[nH]c3c2)cc1` belongs above 44.3 µg/mL. To `Cc1onc(-c2ccccc2)c1C(=O)NCC(O)c1ccccc1` (stereo not drawn) belongs above 48.4 µg/mL.

The molecule `COC(=O)c1cc(CNC(=O)C2CC(=O)N(c3ccc4c(c3)OCCO4)C2)ccc1OC` (stereo not drawn) showed a solubility (kinetic) of 64.7 µg/mL (≈ 147 µM). In turn, `O=C1NCCN1CCN1C(=O)c2ccccc2NC1c1ccccc1` (stereo not drawn) showed a kinetic solubility above 50.5 µg/mL. The figure for `S=C1NC2(CCCCCC2)N=C1c1ccccc1` is 2.8 µg/mL (≈ 10.8 µM); for `Cc1cc(C(=O)N2CCCC(Nc3ccc(F)cc3)C2)n(C)n1` (stereo not drawn) it is above 47.5 µg/mL.

With `O=c1cc(O)c2sc(Nc3ccc(F)cc3)nc2[nH]1`, the kinetic solubility is 0.3 µg/mL (≈ 1.08 µM). The figure for `CC1CC(C)CN(C(=O)COC(=O)c2c[nH]c3ccccc23)C1` (stereo not drawn) is 12.7 µg/mL (≈ 40.4 µM); for `COc1ccc(CNC(=O)c2sc(=S)n(-c3ccccc3)c2N)cc1` it is 0.7 µg/mL (≈ 1.88 µM); for `CSCCC(=O)N1CCCC(CO)(CCCc2ccccc2)C1` (stereo not drawn) it is 31.7 µg/mL (≈ 94.5 µM).

`CSc1cccc(NC(=S)NC(=O)CCc2ccccc2)c1` had a kinetic solubility of 0.7 µg/mL (≈ 2.12 µM).

The molecule `COc1ccccc1N1CCN(c2ccc([N+](=O)[O-])cn2)CC1` gave a solubility (kinetic) of 16.2 µg/mL (≈ 51.5 µM). The molecule `CN1CCCN(C(=O)CNC(=O)c2ccc(Cl)cc2Cl)CC1` had a solubility (kinetic) of 50.8 µg/mL (≈ 148 µM). To `COc1ccccc1C(=O)NCC(=O)Nc1ccc2c(c1)OCO2` belongs 10.5 µg/mL (≈ 32 µM); to `CCC1CCCCN1C(=O)COC(=O)COc1ccc(Br)cc1` (stereo not drawn), above 57.6 µg/mL; to `Cc1ccc(S(=O)(=O)CCc2nc3ccccc3[nH]2)cc1C`, above 47.2 µg/mL. Consider `COc1ccc2cc(C(N)=O)c(=Nc3ccc(C)cc3)oc2c1`, for which the kinetic solubility was below 0.3 µg/mL. To `COC(=O)c1ccccc1NC(=O)CSc1nncn1C` belongs above 46 µg/mL; to `Cc1ccc(NC(=O)c2c([N+](=O)[O-])cnn2C)cc1C`, above 41.1 µg/mL. The figure for `O=C(OCC(=O)c1ccc(Cl)cc1Cl)c1cnccn1` is above 46.7 µg/mL. In turn, `O=C(CNC(=O)c1sc2ccccc2c1Cl)NC1CC1` yielded a kinetic solubility of 4 µg/mL (≈ 13 µM).

Molecule `Cc1cc(C)c(C(=O)Nc2ccccc2)c(CC(C)(C)C(=O)O)c1` came in with a kinetic solubility above 48.8 µg/mL. Molecule `O=C(CSc1nc2ccc(Cl)cc2[nH]1)NC1CCCC1` came in with a solubility (kinetic) of 9.3 µg/mL (≈ 30 µM).

As for `Cc1ccccc1OCC(=O)Nc1ccncc1`, the solubility (kinetic) was above 36.3 µg/mL.
